Data from PMC6844396, “Design, synthesis and biological evaluation of novel 1H-1,2,4-triazole, benzothiazole and indazole-based derivatives as potent FGFR1 inhibitors viafragment-based virtual screening” (Journal of Enzyme Inhibition and Medicinal Chemistry, 2019).

Experiments:
[1] = target: FGFR1 (Homo sapiens, UniProt P11362); experiment: ELISA kinase assay, FGFR1; type: biochemical; conditions: ELISA; average values from two separate experiments
Description: Elisa kinase assay. The effects of the indicated compounds on the activities of receptor tyrosine kinases were determined using enzyme-linked immunosorbent assays (ELISAs) with purified recombinant proteins. Briefly, 20 μg/mL poly (Glu,Tyr)4:1 (Sigma, St Louis, MO, USA) was pre-coated in 96-well plates as a substrate. A 50 μL aliquot of 10 μmol/L ATP solution diluted in kinase reaction buffer (50 mmol/L HEPES [pH 7.4], 50 mmol/L MgCl2, 0.5 mmol/L MnCl2, 0.2 mmol/L Na3VO4, and 1 mmol/L DTT) was added to each well; 1 μL of different compounds with indicated concentration diluted in 1% DMSO (v/v) (Sigma, St Louis, MO, USA) were then added to each reaction well. DMSO (1%, v/v) was used as the negative control. The kinase reaction was initiated by the addition of purified tyrosine kinase proteins (FGFR1, FGFR2, FGFR3, FGFR4, ALK, Bcr-Abl, EPH-A2, Flt-1, RET, c-Src, IGF1R, c-Met, EGFR, ErbB2) diluted in 49 μL of kinase reaction buffer solution. After incubation for 60 min at 37 °C, the plate was washed three times with phosphate-buffered saline (PBS) containing 0.1% Tween 20 (T-PBS). Anti-phosphotyrosine (PY99) antibody (100 μL; 1:500, diluted in 5 mg/mL BSA T-PBS) was then added. After a 30 min incubation at 37 °C, the plate was washed three times, and 100 μL horseradish peroxidase-conjugated goat anti-mouse IgG (1:2000, diluted in 5 mg/mL BSA T-PBS) was added. The plate was then incubated at 37 °C for 30 min and washed 3 times. A 100 μL aliquot of a solution containing 0.03% H2O2 and 2 mg/mL o-phenylenediamine in 0.1 mol/l citrate buffer (pH 5.5) was added. The reaction was terminated by the addition of 50 μL of 2 mol/l H2SO4 as the colour changed, and the plate was analysed using a multi-well spectrophotometer (SpectraMAX 190, Molecular Devices, Sunnyvale, CA, USA) at 490 nm. The inhibition rate (%) was calculated using the following equation: [1-(A490/A490 control)] × 100%. The IC50 values were calculated from the inhibition curves in two separate experiments.

[2] = test system: SNU-16 cell; experiment: Cell proliferation assay (CCK-8 or MTT), SNU-16; type: cell-based, Human; conditions: for IC50: SNU-16 is FGFR2-amplified cell type, 72 h
Description: Human gastric cancer cell line SNU-16 was purchased from American Type Culture Collection (ATCC, Manssas, VA, USA). All the cell lines were routinely maintained in complete medium according to the suppliers’ recommendations.
Cells were seeded in 96-well tissue culture plates. On the day when seeding, the cells were exposed to various concentrations of compounds and further cultured for 72 h at 37 °C. Finally, cell proliferation was determined using Cell Counting Kit (CCK-8) or the thiazolyl blue tetrazolium bromide (MTT, from Sigma-Aldrich, St. Louis, MO, USA) assay. The IC50 values were calculated by concentration–response curve fitting using a SoftMax pro-based four-parameter method.

FGFR1, sequence (P11362 22-822): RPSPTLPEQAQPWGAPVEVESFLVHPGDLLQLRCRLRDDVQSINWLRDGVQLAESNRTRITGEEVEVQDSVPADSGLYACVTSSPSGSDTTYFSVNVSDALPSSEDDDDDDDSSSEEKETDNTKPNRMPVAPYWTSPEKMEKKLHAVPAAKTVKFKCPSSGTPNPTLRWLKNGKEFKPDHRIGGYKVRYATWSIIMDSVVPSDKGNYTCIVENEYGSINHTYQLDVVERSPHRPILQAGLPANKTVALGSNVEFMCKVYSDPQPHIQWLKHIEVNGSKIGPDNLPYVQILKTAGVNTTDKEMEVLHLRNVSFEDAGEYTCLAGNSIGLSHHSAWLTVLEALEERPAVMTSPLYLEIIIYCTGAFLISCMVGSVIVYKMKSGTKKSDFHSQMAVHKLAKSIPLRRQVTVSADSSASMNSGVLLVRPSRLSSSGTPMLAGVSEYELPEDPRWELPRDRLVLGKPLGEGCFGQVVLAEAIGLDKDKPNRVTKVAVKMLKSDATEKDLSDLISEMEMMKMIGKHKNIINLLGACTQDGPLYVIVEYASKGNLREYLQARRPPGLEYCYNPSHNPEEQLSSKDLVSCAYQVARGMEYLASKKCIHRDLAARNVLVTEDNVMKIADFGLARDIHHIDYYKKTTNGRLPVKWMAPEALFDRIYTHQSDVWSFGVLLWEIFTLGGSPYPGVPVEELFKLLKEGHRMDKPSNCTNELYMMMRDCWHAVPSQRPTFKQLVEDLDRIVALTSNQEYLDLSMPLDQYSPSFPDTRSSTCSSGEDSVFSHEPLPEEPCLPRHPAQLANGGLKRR

Molecule | IC50 [1] | IC50 ([2]; Homo sapiens, Table 1) | melting point | IC50 ([2]; Homo sapiens, Table 2) | enhancement of the cellular inhibition ([2]; 9o vs 9d, SNU-16) | IC50 ([2]; Homo sapiens, Table 3) | IC50 ([2]; Table 1)
COc1cc(OC)cc(-c2ccc3c(NC(=O)c4ccc(N5C[C@@H](C)N[C@@H](C)C5)cc4)n[nH]c3c2)c1 [9a, N-(6–(3,5-dimethoxyphenyl)-1H-indazol-3-yl)-4-((3R,5S)-3,5-dimethylpiperazin-1-yl)benzamide] | 30.6 nM | 1200 nM | – | – | – | – | –
COc1cccc(-c2ccc3c(NC(=O)c4ccc(N5C[C@@H](C)N[C@@H](C)C5)cc4)n[nH]c3c2)c1 [9b, 4-((3R,5S)-3,5-dimethylpiperazin-1-yl)-N-(6–(3-methoxyphenyl)-1H-indazol-3-yl)benzamide] | 20.7 nM | 1050 nM | 224.8 to 227.4 °C | – | – | – | –
COc1cccc(-c2ccc3c(NC(=O)c4ccc(N5CCN(C)CC5)cc4)n[nH]c3c2)c1 [9c, N-(6–(3-methoxyphenyl)-1H-indazol-3-yl)-4–(4-methylpiperazin-1-yl)benzamide] | 28.2 nM | 843 nM | 224.8 to 227.4 °C | – | – | – | –
CCN1CCN(c2ccc(C(=O)Nc3n[nH]c4cc(-c5cccc(OC)c5)ccc34)cc2)CC1 [9d, 4–(4-ethylpiperazin-1-yl)-N-(6–(3-methoxyphenyl)-1H-indazol-3-yl)benzamide] | 15 nM | 786 nM | – | – | – | – | –
CCOc1cccc(-c2ccc3c(NC(=O)c4ccc(N5CCN(CC)CC5)cc4)n[nH]c3c2)c1 [9e, N-(6–(3-ethoxyphenyl)-1H-indazol-3-yl)-4–(4-ethylpiperazin-1-yl)benzamide] | 13.2 nM | – | 223.6 to 226 °C | 1790 nM | – | – | –
CCN1CCN(c2ccc(C(=O)Nc3n[nH]c4cc(-c5cccc(OC(C)C)c5)ccc34)cc2)CC1 [9f, 4–(4-ethylpiperazin-1-yl)-N-(6–(3-isopropoxyphenyl)-1H-indazol-3-yl)benzamide] | 9.8 nM | – | 227.9 to 231.7 °C | 1500 nM | – | – | –
CCC(C)Oc1cccc(-c2ccc3c(NC(=O)c4ccc(N5CCN(CC)CC5)cc4)n[nH]c3c2)c1 (stereo not drawn) [9g, N-(6–(3-(sec-butoxy)phenyl)-1H-indazol-3-yl)-4–(4-ethylpiperazin-1-yl)benzamide] | > 1000 nM | – | – | > 5000 nM | – | – | –
CCN1CCN(c2ccc(C(=O)Nc3n[nH]c4cc(-c5cccc(C(=O)OC)c5)ccc34)cc2)CC1 [9h, methyl 3–(3-(4–(4-ethylpiperazin-1-yl)benzamido)-1H-indazol-6-yl)benzoate] | 77.7 nM | – | 228.7 to 233.4 °C | 757 nM | – | – | –
CCN1CCN(c2ccc(C(=O)Nc3n[nH]c4cc(-c5ccc(C)c(OC)c5)ccc34)cc2)CC1 [9i, 4–(4-ethylpiperazin-1-yl)-N-(6–(3-methoxy-4-methylphenyl)-1H-indazol-3-yl) benzamide] | > 1000 nM | – | 227.3 to 231.2 °C | > 5000 nM | – | – | –
CCN1CCN(c2ccc(C(=O)Nc3n[nH]c4cc(-c5cc(C(F)(F)F)cc(C(F)(F)F)c5)ccc34)cc2)CC1 [9j, N-(6–(3,5-bis(trifluoromethyl)phenyl)-1H-indazol-3-yl)-4–(4-ethylpiperazin-1-yl)benzamide] | > 1000 nM | – | – | > 5000 nM | – | – | –
CCN1CCN(c2ccc(C(=O)Nc3n[nH]c4cc(-c5cc(Cl)cc(Cl)c5)ccc34)cc2)CC1 [9k, N-(6–(3,5-dichlorophenyl)-1H-indazol-3-yl)-4–(4-ethylpiperazin-1-yl)benzamide] | 67.2 nM | – | 226.4 to 228.7 °C | 1200 nM | – | – | –
CCN1CCN(c2ccc(C(=O)Nc3n[nH]c4cc(-c5cc(Cl)ccc5Cl)ccc34)cc2)CC1 [9l, N-(6–(2,5-dichlorophenyl)-1H-indazol-3-yl)-4–(4-ethylpiperazin-1-yl)benzamide] | 50.6 nM | – | 231.5 to 234.6 °C | 780 nM | – | – | –
CCN1CCN(c2ccc(C(=O)Nc3n[nH]c4cc(-c5cccc(Cl)c5Cl)ccc34)cc2)CC1 [9m, N-(6–(2,3-dichlorophenyl)-1H-indazol-3-yl)-4–(4-ethylpiperazin-1-yl)benzamide] | 44.8 nM | – | 220.1 to 222.4 °C | 1180 nM | – | – | –
CCN1CCN(c2ccc(C(=O)Nc3n[nH]c4cc(-c5ccc(Cl)c(Cl)c5)ccc34)cc2)CC1 [9n, N-(6–(3,4-dichlorophenyl)-1H-indazol-3-yl)-4–(4-ethylpiperazin-1-yl)benzamide] | > 1000 nM | – | 224.9 to 228 °C | > 5000 nM | – | – | –
CCN1CCN(c2ccc(C(=O)Nc3n[nH]c4cc(-c5cc(F)cc(OC)c5)ccc34)cc2)CC1 [9o, 4–(4-ethylpiperazin-1-yl)-N-(6–(3-fluoro-5-methoxyphenyl)-1H-indazol-3-yl)benzamide] | 5.5 nM | – | 225.5 to 227 °C | 572 nM | 1.4 fold | – | –
CCN1CCN(c2ccc(C(=O)Nc3n[nH]c4cc(-c5ccc(C(F)(F)F)cc5Cl)ccc34)cc2)CC1 [9p, N-(6–(2-chloro-4-(trifluoromethyl)phenyl)-1H-indazol-3-yl)-4–(4-ethylpiperazin-1-yl)benzamide] | > 1000 nM | – | 227.9 to 232 °C | > 5000 nM | – | – | –
CCN1CCN(c2ccc(C(=O)Nc3n[nH]c4cc(-c5c(C)cccc5C)ccc34)cc2)CC1 [9q, N-(6–(2,6-dimethylphenyl)-1H-indazol-3-yl)-4–(4-ethylpiperazin-1-yl)benzamide] | 41.7 nM | – | 235.7 to 239.2 °C | 856 nM | – | – | –
CCN1CCN(c2ccc(C(=O)Nc3n[nH]c4cc(-c5ccccc5OC(F)(F)F)ccc34)cc2)CC1 [9r, 4–(4-ethylpiperazin-1-yl)-N-(6–(2-(trifluoromethoxy)phenyl)-1H-indazol-3-yl)benzamide] | > 1000 nM | – | 230.9 to 233.5 °C | > 5000 nM | – | – | –
CCN1CCN(c2ccc(C(=O)Nc3n[nH]c4cc(-c5ccc(C#N)cc5)ccc34)cc2)CC1 [9s, N-(6–(4-cyanophenyl)-1H-indazol-3-yl)-4–(4-ethylpiperazin-1-yl)benzamide] | > 1000 nM | – | 226.4 to 230 °C | > 5000 nM | – | – | –
CCN1CCN(c2ccc(C(=O)Nc3n[nH]c4cc(-c5ccn(C)n5)ccc34)cc2)CC1 [9t, 4–(4-ethylpiperazin-1-yl)-N-(6–(1-methyl-1H-pyrazol-3-yl)-1H-indazol-3-yl) benzamide] | > 1000 nM | – | 221.6 to 224.2 °C | > 5000 nM | – | – | –
COc1cc(F)cc(-c2ccc3c(NC(=O)c4ccc(N5C[C@@H](C)N[C@@H](C)C5)cc4)n[nH]c3c2)c1 [9v, 4-((3R,5S)-3,5-dimethylpiperazin-1-yl)-N-(6–(3-fluoro-5-methoxyphenyl)-1H-indazol-3-yl)benzamide] | 13.2 nM | – | 229.6 to 233.4 °C | – | – | 437 nM | –
COc1cc(F)cc(-c2ccc3c(NC(=O)c4ccc(N5CCCN(C)CC5)cc4)n[nH]c3c2)c1 [9w, N-(6–(3-fluoro-5-methoxyphenyl)-1H-indazol-3-yl)-4–(4-methyl-1,4-diazepan-1-yl)benzamide] | 3.3 nM | – | 230.4 to 234.6 °C | – | – | 557 nM | –
COc1cc(F)cc(-c2ccc3c(NC(=O)c4ccc(CN5CCN(C)CC5)cc4)n[nH]c3c2)c1 [9x, N-(6–(3-fluoro-5-methoxyphenyl)-1H-indazol-3-yl)-4-((4-methylpiperazin-1-yl)methyl)benzamide] | > 1000 nM | – | 240.3 to 242.5 °C | – | – | > 5000 nM | –
COc1cc(F)cc(-c2ccc3c(NC(=O)c4ccc(N5CCN(C)CC5)cc4)n[nH]c3c2)c1 [9y, N-(6–(3-fluoro-5-methoxyphenyl)-1H-indazol-3-yl)-4–(4-methylpiperazin-1-yl)benzamide] | 10.2 nM | – | 237.4 to 241.6 °C | – | – | 639 nM | –
AZD4547 [reference compound] | – | – | – | – | – | – | 6.1 nM
N-(5–(3-methoxyphenethyl)-1H-1,2,4-triazol-3-yl)-4–(4-methylpiperazin-1-yl) benzamide [18b] | > 1000 nM | – | – | – | – | – | > 5000 nM
